Source: patent US5968751A, “Method for detecting the presence of protein C antibody in a fluid sample” (The Scripps Research Institute, priority 1997, dated 1999)
No end group written: not given here.

Experiments:
[1] = target: APC (Homo sapiens, UniProt P04070); experiment: Xa-1-stage coagulation assay, inhibition of APC anticoagulant activity; format: biochemical; set-up: Protein C consists of a 155 amino acid residue light chain and a 262 amino acid residue heavy chain; from tissue; host or cells: human plasma factor IX concentrate
Protocol: For testing the inhibition of the synthetic peptides on APC activity described above, Xa-1-stage coagulation assays were also performed as described. See Seegers et al., Thrombosis Res., 13:233-243 (1978); Marlar et al., supra; and Walker et al., J. Biol. Chem., 265:1484-1489 (1990). PC heavy chain-derived peptides listed below in Table 6 and PC light chain-derived peptides listed below in Table 7 were prepared as described above and separately admixed for a final concentration of 2 mM with 120 nM APC in 100 μl of TBS-BSA at pH 7.4 to form separate peptide-APC admixtures. The resulting admixtures were maintained for ten minutes at 37° C. Separate aliquots of peptides maintained under the same conditions in the absence of APC served as controls for the inhibitory effect of synthetic peptides on APC anticoagulant activity. After the maintenance period, 100 μl of NHP and 100 μl of 200 μg/ml of rabbit brain cephalin (Sigma) were admixed into each peptide admixture and maintained for 200 seconds at 37° C. to form pre-coagulation admixtures. In some experiments, Factor VIII deficient plasma (George King Bio-Medical, Inc.) was used in the place of NHP to determine the effect of Factor VIII on the assay system. Coagulation was then initiated by the admixture of 100 μl of 0.62 nM human activated Factor X (Xa) (Enzyme Research Laboratories, Southbend, Ind.) in TBS-BSA containing 30 mM CaCl2 prewarmed to 37° C. to each of the pre-coagulation admixtures.
The time for clot formation was measured by an Electra 700 Automatic Coagulation Timer (Medical Laboratory Automation, Inc., Mount Vernon, N.Y.). Each peptide's effect was determined in duplicate. The results of the inhibition of APC anticoagulant activity by synthetic peptides as measured in Xa-1-stage coagulation assays are presented in Tables 6 and 7 below with the APTT assay results and are presented as the mean values obtained with APTT assays. Data for results with PC heavy chain-derived peptides are shown in Table 6 and data for results with PC light chain-derived peptides are shown in Table 7.
The results of inhibition of APC anticoagulant activity by PC light chain-derived peptides in a Xa-1 stage coagulation assay are shown in Table 7. The assay was performed in the presence of NHP. Peptides used in the assay were prepared as described in Example 1 and are listed in Table 7 by their corresponding residue positions in native PC protein (SEQ ID NO 1). For all peptides except PC142-155 used in the Xa-1 stage assays listed in Table 7, cysteine residues in the native PC amino acid residue sequence were substituted by either serine or glycine in the synthesized peptide. This was done to prevent multiple disulfide formation and subsequent potential polymerization among peptides with multiple cysteines. […]

[2] = target: T1, Factor Xa (Homo sapiens, UniProt P00742); experiment: Factor Xa amidolytic activity towards chromogenic substrates; format: biochemical
T1 construct: purchased Enzyme Research Laboratories, Southbend, Ind
Protocol: To determine the effect of the APC-inhibiting peptides, PC311-325 and PC142-155, on the amidolytic activity of Factor Xa, amidolytic assays as described for APC in Example 5a3 were performed using 0.15 nM Factor Xa in the presence of increasing amounts of peptide. Peptide PC311-325 ranged in concentration from 0 to 100 μM whereas peptide PC142-155 ranged in concentration from 0 to 50 μM.
For the assay, 100 μl of 0.15 nM factor Xa, prepared in Example 5a5) were admixed with separate aliquots of either peptide prepared in TBS-BSA at pH 7.4 containing 0.02% NaN3 and 2 mM CaCl2 to form APC-peptide admixtures. After maintenance of the admixtures for 30 minutes at 37° C., 50 μl of 2.4 mM S-2222 in the same buffer were admixed to initiate the amidolytic reaction. The hydrolysis of the substrate was measured as described before.

Chain of APC (P04070 43-197 limits assumed): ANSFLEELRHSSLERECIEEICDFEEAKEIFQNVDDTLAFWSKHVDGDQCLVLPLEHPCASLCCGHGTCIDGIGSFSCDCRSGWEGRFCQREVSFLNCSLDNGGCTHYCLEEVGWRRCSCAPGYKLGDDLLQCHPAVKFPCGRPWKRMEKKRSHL
Chain of APC (P04070 212-450 limits assumed): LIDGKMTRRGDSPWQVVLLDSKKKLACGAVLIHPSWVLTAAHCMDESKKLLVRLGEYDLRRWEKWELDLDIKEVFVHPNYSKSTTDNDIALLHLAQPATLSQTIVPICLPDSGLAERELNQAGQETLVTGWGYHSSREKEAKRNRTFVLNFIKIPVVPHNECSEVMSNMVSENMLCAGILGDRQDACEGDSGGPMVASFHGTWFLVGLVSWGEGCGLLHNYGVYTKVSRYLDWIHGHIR
T1 sequence (P00742 41-179 limits assumed): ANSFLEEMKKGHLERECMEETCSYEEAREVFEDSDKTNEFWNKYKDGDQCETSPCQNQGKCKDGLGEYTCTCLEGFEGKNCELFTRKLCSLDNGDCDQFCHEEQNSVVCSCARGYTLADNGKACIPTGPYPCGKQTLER
T1 sequence (P00742 235-488 limits assumed): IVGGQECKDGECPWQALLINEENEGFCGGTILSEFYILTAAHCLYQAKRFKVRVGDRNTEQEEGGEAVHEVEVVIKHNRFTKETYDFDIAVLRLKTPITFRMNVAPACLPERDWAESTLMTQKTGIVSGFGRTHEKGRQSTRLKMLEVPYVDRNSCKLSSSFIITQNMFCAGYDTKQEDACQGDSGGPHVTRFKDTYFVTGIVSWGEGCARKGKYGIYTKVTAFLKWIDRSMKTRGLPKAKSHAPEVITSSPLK

IC50 ([1]; Xa-1-stage assay in NHP, read-out: 50% inhibition of APC anticoagulant activity) | inhibition at 500 µM ([1]; final peptide concentration 500 μM, NHP, 0 = no observable effect +10%) | Molecule | effect on Factor Xa amidolytic activity towards chromogenic substrates [2] | inhibition of APC anticoagulant activity ([1]; Xa-1-stage assay)
25 µM | 80% | CSCC[C@H](NC(=O)[C@H](CCCNC(=N)N)NC(=O)[C@H](CCCCN)NC(=O)[C@H](Cc1c[nH]c2ccccc12)NC(=O)[C@@H]1CCCN1C(=O)[C@H](CCCNC(=N)N)NC(=O)CN)C(=O)N[C@@H](CCC(=O)O)C(=O)N[C@@H](CCCCN)C(=O)N[C@@H](CCCCN)C(=O)N[C@@H](CCCNC(=N)N)C(=O)N[C@@H](CO)C(=O)N[C@@H](Cc1c[nH]cn1)C(=O)N[C@@H](CC(C)C)C(=O)N[C@@H](CS)C(N)=O [PC142-155, Gly-Arg-Pro-Trp-Lys-Arg-Met-Glu-Lys-Lys-Arg-Ser-His-Leu] |  | 
 |  | KRNRTFVLNFIKIPV-NH2 [PC311-325, Lys-Arg-Asn-Arg-Thr-Phe-Val-Leu-Asn-Phe-Ile-Lys-Ile-Pro-Val] | no significant effect | 
 |  | MHKLREGKWRPKSR [Scrambled peptide, reference compound] | no significant effect | very little if any significant inhibition
